Converted amounts (≈) assume the structure as drawn. The source made the active and inactive calls. The rule behind the calls is not given here.
Columns and labels:
[1] = system: rhinovirus B14; test: In vitro antiviral activity against human rhinovirus-14 using plaque reduction assay; format: functional, human rhinovirus type 14; details: Rhinovirus B
[2] = system: Human rhinovirus 1A; test: In vitro antiviral activity against human rhinovirus-1A using plaque reduction assay; format: functional
[3] = system: Human rhinovirus sp.; test: (§1) Minimum inhibitory concentration which inhibits 80% of serotypes was determined; format: functional
[4] = system: Human rhinovirus sp.; test: In vitro antiviral activity against human rhinovirus-15 serotype; format: functional
[5] = system: Human rhinovirus sp.; test: In vitro antiviral activity against human rhinovirus 67 serotype; format: functional
[6] = system: Human rhinovirus sp.; test: In vitro antiviral activity against human rhinovirus-25 serotype; format: functional
[7] = as §1; format: functional, human rhinovirus-1a, 14; details: Human rhinovirus sp.
[8] = system: Human rhinovirus sp.; test: In vitro antiviral activity against human rhinovirus 2 serotype; format: functional
[9] = system: Human rhinovirus sp.; test: In vitro antiviral activity against human rhinovirus-30 serotype; format: functional
[10] = system: Human rhinovirus sp.; test: In vitro antiviral activity against human rhinovirus-41 serotype; format: functional
[11] = system: Human rhinovirus sp.; test: In vitro antiviral activity against human rhinovirus 50 serotype; format: functional
[12] = system: Human rhinovirus sp.; test: In vitro antiviral activity against human rhinovirus 1A serotype; format: functional
[13] = system: Human rhinovirus sp.; test: In vitro antiviral activity against human rhinovirus 1B serotype; format: functional
[14] = system: Human rhinovirus sp.; test: In vitro antiviral activity against human rhinovirus-22 serotype; format: functional
[15] = system: Human rhinovirus sp.; test: In vitro antiviral activity against human rhinovirus 6 serotype; format: functional
[16] = system: Human rhinovirus sp.; test: In vitro antiviral activity against human rhinovirus 89 serotype; format: functional
[17] = system: Human rhinovirus sp.; test: In vitro antiviral activity against human rhinovirus 86 serotype; format: functional
[18] = system: Human rhinovirus sp.; test: In vitro antiviral activity against human rhinovirus 14 serotype; format: functional
[19] = system: Human rhinovirus sp.; test: In vitro antiviral activity against human rhinovirus-21 serotype; format: functional
[20] = system: rhinovirus B14; test: In vitro antiviral activity against human rhinovirus-14 using plaque reduction assay; not active; format: functional, organism-based; details: human rhinovirus type 14
[21] = system: Human rhinovirus 1A; test: In vitro antiviral activity against human rhinovirus-1A using plaque reduction assay; not active; format: functional, organism-based

Compound: CCCn1nnc(-c2cc(C)c(OCCCc3cc(C)no3)c(C)c2)n1
- MIC50 [1]: 1.6 µM (≈ 0.569 µg/mL)
- MIC50 [2]: 6.5 µM (≈ 2.31 µg/mL)
- MIC80 [3]: 1.27 µM (≈ 0.451 µg/mL)

Compound: COCCc1cc(CCCOc2c(C)cc(-c3nnn(C)n3)cc2C)on1
- MIC50 [1]: 0.05 µM (≈ 0.0186 µg/mL)
- MIC50 [2]: 0.12 µM (≈ 0.0446 µg/mL)
- MIC80 [3]: 0.3 µM (≈ 0.111 µg/mL)

Compound: Cc1cc(CCCOc2c(C)cc(-c3nnn(C)n3)cc2C)on1
- MIC [4]: 0.18 µM (≈ 0.0589 µg/mL)
- MIC [5]: 0.14 µM (≈ 0.0458 µg/mL)
- MIC50 [1]: 1.74 µM (≈ 0.57 µg/mL)
- MIC [6]: 0.06 µM (≈ 0.0196 µg/mL)
- MIC80 [7]: 0.4 µM (≈ 0.131 µg/mL)
- MIC [8]: 0.02 µM (≈ 0.00655 µg/mL)
- MIC [9]: 0.07 µM (≈ 0.0229 µg/mL)
- MIC [10]: 0.4 µM (≈ 0.131 µg/mL)
- MIC [11]: 0.23 µM (≈ 0.0753 µg/mL)
- MIC [12]: 0.11 µM (≈ 0.036 µg/mL)
- MIC [13]: 0.03 µM (≈ 0.00982 µg/mL)
- MIC [14]: 0.05 µM (≈ 0.0164 µg/mL)
- MIC [15]: 2.2 µM (≈ 0.72 µg/mL)
- MIC [16]: 0.01 µM (≈ 0.00327 µg/mL)
- MIC50 [2]: 0.11 µM (≈ 0.036 µg/mL)
- MIC [3]: 0.4 µM (≈ 0.131 µg/mL)
- MIC [17]: 2.05 µM (≈ 0.671 µg/mL)
- MIC [18]: 1.7 µM (≈ 0.557 µg/mL)
- MIC [19]: 0.02 µM (≈ 0.00655 µg/mL)

Compound: CCn1nnc(-c2cc(C)c(OCCCCCc3cc(C)no3)c(C)c2)n1
- MIC50 [1]: 0.73 µM (≈ 0.27 µg/mL)
- MIC50 [2]: 0.73 µM (≈ 0.27 µg/mL)
- MIC80 [3]: 0.65 µM (≈ 0.24 µg/mL)

Compound: CCc1cc(CCCOc2c(C)cc(-c3nnn(C)n3)cc2C)on1
- MIC50 [1]: 0.5 µM (≈ 0.171 µg/mL)
- MIC50 [2]: 0.05 µM (≈ 0.0171 µg/mL)
- MIC80 [3]: 0.41 µM (≈ 0.14 µg/mL)

Compound: Cc1cc(-c2nnn(C)n2)cc(C)c1OCCCc1cc(CC(C)O)no1 (stereo unspecified)
- MIC50 [1]: 1.8 µM (≈ 0.669 µg/mL)
- MIC50 [2]: 0.71 µM (≈ 0.264 µg/mL)

Compound: CC(=O)c1cc(CCCOc2c(C)cc(-c3nnn(C)n3)cc2C)on1
- MIC50 [1]: 0.96 µM (≈ 0.341 µg/mL)
- MIC50 [2]: 0.12 µM (≈ 0.0426 µg/mL)

Compound: Cc1cc(CCOc2c(C)cc(-c3nnn(C)n3)cc2C)on1
- MIC50 [20]: inactive
- MIC50 [2]: 2.14 µM (≈ 0.671 µg/mL)

Compound: Cc1cc(-c2nnn(C)n2)cc(C)c1OCCCc1cc(CC(C)C)no1
- MIC50 [1]: 0.32 µM (≈ 0.118 µg/mL)
- MIC50 [2]: 0.46 µM (≈ 0.17 µg/mL)
- MIC80 [3]: 1.5 µM (≈ 0.554 µg/mL)

Compound: Cc1cc(-c2nnn(C)n2)cc(C)c1OCCCCCc1cc(CO)no1
- MIC50 [1]: 0.62 µM (≈ 0.23 µg/mL)
- MIC50 [2]: 0.18 µM (≈ 0.0669 µg/mL)
- MIC80 [3]: 1.59 µM (≈ 0.591 µg/mL)

Compound: Cc1cc(-c2nnn(C)n2)cc(C)c1OCCCCCc1cc(COCCOCCOCCO)no1
- MIC50 [1]: 1.05 µM (≈ 0.529 µg/mL)
- MIC50 [2]: 4.9 µM (≈ 2.47 µg/mL)

Compound: COC(=O)Cn1nnc(-c2cc(C)c(OCCCCCc3cc(C)no3)c(C)c2)n1
- MIC50 [20]: inactive
- MIC50 [21]: inactive

Compound: Cc1cc(CCCCCOc2c(Cl)cc(-c3nnn(C)n3)cc2Cl)on1
- MIC50 [1]: 0.38 µM (≈ 0.151 µg/mL)
- MIC50 [2]: 0.38 µM (≈ 0.151 µg/mL)
- MIC80 [3]: 0.25 µM (≈ 0.0991 µg/mL)

Compound: Cc1cc(-c2nnn(C)n2)cc(C)c1OCCCc1cc(CCCO)no1
- MIC50 [1]: 0.17 µM (≈ 0.0631 µg/mL)
- MIC50 [2]: 0.2 µM (≈ 0.0743 µg/mL)
- MIC80 [3]: 0.4 µM (≈ 0.149 µg/mL)

Compound: Cc1cc(-c2nnn(C)n2)cc(C)c1OCCCc1cc(CC(O)CO)no1 (stereo unspecified)
- MIC50 [20]: inactive
- MIC50 [2]: 0.67 µM (≈ 0.26 µg/mL)

Compound: CCn1nnc(-c2cc(C)c(OCCCc3cc(C)no3)c(C)c2)n1
- MIC50 [1]: 0.8 µM (≈ 0.273 µg/mL)
- MIC50 [2]: 0.67 µM (≈ 0.229 µg/mL)
- MIC80 [3]: 0.25 µM (≈ 0.0854 µg/mL)

Compound: Cc1cc(CCCCOc2c(C)cc(-c3nnn(C)n3)cc2C)on1
- MIC50 [1]: 2.43 µM (≈ 0.83 µg/mL)
- MIC50 [2]: 0.1 µM (≈ 0.0341 µg/mL)
- MIC80 [3]: 0.66 µM (≈ 0.225 µg/mL)

Compound: Cc1cc(-c2nnn(C)n2)cc(C)c1OCCCCCc1cc(COCOCCO)no1
- MIC50 [1]: 0.06 µM (≈ 0.0267 µg/mL)
- MIC50 [2]: 4.03 µM (≈ 1.8 µg/mL)

Compound: Cc1cc(CCCCCCOc2c(C)cc(-c3nnn(C)n3)cc2C)on1
- MIC50 [1]: 1.91 µM (≈ 0.706 µg/mL)
- MIC50 [2]: 0.24 µM (≈ 0.0887 µg/mL)
- MIC80 [3]: 0.73 µM (≈ 0.27 µg/mL)

Source: ChEMBL document CHEMBL1126867, “Antipicornavirus activity of tetrazole analogues related to disoxaril” (1993)
